Assay results taken from patent US7790742B2, “Substituted 4-phenyltetrahydroisoquinolines, pharmaceutical compositions thereof, methods for their preparation and therapeutic use” (Sanofi-Aventis Deutschland GmbH, priority 2004, dated 2010).

Key:
NHE2 = molecular target: T1, NHE2 (Homo sapiens, UniProt Q9UBY0); assay: Tiamenidine inhibitory action on NHE subtypes: NHE2; assay type: cell-based; settings: therapeutically utilizable concentration range
T1 sequence (Q9UBY0 1-812): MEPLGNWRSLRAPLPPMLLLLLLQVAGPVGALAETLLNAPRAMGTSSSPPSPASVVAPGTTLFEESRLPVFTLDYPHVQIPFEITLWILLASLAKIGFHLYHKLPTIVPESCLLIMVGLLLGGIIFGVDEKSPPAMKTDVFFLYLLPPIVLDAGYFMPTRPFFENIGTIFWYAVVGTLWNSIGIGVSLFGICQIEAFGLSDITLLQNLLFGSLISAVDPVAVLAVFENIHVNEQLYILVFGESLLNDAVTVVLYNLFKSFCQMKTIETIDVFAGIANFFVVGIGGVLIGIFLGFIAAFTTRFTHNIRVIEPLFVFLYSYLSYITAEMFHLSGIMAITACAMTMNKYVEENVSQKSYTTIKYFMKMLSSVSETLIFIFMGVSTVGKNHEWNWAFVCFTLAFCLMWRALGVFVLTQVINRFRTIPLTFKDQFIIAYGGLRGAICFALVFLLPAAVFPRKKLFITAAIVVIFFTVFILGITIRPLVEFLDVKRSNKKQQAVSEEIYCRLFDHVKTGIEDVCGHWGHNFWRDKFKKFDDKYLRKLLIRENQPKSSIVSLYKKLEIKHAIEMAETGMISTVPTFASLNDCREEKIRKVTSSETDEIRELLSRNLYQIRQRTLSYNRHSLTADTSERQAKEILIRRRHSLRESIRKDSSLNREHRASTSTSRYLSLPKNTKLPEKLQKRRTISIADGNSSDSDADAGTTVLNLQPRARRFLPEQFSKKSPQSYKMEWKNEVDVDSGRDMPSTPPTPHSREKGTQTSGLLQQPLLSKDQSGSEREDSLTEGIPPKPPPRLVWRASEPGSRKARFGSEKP
Source text: (§1) Compounds which are similar to clonidine but have a thiophene instead of the phenyl ring are disclosed in DE1941761. The structures of formula I disclosed and claimed herein differ from existing compounds by the fusing of a thieno-substituent to the imidazole moiety of the formula I or II. This distinction allows the above-described clonidine-like undesired cardiovascular effects mediated by alpha-adrenoreceptor action to be eliminated. […] The application WO03053434 proposes NHE3 inhibitors of the imidazoline type, the patent application WO 03101984 of the thiophene type and the application DE10304374 of the imidazole type.

NHE5 = molecular target: T2, NHE5 (Homo sapiens, UniProt Q14940); assay: Tiamenidine inhibitory action on NHE subtypes: NHE5; assay type: cell-based; settings: therapeutically utilizable concentration range
T2 sequence (Q14940 1-896): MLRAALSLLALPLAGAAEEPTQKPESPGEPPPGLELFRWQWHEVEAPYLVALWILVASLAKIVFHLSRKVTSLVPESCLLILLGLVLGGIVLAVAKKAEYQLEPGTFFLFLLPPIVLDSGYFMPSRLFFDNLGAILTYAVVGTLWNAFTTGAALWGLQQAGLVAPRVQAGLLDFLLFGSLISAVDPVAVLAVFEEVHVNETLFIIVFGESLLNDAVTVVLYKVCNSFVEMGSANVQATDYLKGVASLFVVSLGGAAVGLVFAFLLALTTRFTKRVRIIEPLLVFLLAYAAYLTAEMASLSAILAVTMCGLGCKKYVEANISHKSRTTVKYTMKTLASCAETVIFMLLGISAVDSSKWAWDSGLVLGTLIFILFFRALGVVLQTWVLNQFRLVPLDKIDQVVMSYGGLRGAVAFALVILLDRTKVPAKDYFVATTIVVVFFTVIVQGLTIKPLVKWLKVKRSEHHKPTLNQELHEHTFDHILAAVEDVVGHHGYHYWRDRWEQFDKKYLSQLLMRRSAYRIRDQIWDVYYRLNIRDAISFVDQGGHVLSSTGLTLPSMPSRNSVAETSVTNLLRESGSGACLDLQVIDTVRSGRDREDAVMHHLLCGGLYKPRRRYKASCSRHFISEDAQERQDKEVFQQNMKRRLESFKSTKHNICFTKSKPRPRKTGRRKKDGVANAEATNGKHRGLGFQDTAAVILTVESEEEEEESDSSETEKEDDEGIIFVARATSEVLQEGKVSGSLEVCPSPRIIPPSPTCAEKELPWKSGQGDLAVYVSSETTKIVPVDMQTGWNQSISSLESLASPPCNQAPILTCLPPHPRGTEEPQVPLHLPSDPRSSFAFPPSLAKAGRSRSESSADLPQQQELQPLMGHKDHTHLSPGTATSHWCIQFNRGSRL
Source text: as §1

NHE1 = NHE1 (Homo sapiens, UniProt P19634); assay: Tiamenidine inhibitory action on NHE subtypes: NHE1; assay type: cell-based; settings: therapeutically utilizable concentration range
Sequence of NHE1 (P19634 whole entry, species assumed): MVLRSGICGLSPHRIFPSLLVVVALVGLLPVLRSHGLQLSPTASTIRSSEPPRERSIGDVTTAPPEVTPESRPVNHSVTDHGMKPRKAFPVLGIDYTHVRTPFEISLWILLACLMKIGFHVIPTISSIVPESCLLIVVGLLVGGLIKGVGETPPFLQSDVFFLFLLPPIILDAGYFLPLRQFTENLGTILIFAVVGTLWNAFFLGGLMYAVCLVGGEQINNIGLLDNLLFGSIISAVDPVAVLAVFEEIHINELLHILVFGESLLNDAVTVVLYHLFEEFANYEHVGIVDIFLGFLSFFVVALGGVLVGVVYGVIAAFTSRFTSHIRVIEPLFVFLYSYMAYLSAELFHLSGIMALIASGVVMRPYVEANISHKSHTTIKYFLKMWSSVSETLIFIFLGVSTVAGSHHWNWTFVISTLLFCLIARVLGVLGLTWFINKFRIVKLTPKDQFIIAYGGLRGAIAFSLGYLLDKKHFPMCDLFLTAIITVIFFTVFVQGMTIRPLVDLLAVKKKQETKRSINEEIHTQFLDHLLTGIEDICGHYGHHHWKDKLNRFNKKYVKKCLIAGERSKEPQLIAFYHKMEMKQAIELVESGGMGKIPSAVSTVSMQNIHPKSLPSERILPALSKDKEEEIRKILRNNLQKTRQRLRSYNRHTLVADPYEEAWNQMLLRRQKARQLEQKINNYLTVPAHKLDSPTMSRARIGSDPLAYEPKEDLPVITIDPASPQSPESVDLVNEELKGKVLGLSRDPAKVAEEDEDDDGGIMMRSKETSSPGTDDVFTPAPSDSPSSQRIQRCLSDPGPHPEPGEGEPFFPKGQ
Source text: as §1

NHE3 [1] = molecular target: T3, NHE3 (Homo sapiens, UniProt P48764); assay: Tiamenidine inhibitory action on NHE subtypes: NHE3; assay type: cell-based; settings: therapeutically utilizable concentration range
T3 construct: host or cells: cells, not specified
T3 sequence (P48764 26-834): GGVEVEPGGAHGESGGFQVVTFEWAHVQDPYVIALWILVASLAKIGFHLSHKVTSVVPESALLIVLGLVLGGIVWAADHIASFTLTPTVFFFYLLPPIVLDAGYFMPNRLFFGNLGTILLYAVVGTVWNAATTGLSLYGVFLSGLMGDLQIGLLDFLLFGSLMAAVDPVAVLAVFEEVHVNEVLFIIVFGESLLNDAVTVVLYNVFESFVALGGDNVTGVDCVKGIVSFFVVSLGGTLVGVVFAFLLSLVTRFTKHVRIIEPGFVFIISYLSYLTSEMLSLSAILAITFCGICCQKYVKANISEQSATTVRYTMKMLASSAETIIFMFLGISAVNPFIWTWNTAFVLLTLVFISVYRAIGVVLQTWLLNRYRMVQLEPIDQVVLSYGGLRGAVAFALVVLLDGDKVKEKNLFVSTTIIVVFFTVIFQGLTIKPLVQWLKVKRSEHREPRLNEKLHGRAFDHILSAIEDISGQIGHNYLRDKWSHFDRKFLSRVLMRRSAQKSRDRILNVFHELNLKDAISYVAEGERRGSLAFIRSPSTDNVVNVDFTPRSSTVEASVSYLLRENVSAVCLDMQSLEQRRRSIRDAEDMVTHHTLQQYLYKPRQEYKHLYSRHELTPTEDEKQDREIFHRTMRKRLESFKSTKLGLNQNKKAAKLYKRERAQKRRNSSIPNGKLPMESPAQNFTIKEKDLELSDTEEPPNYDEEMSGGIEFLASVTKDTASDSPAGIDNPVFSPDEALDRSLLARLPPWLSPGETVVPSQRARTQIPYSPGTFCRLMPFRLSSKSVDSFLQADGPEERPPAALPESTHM
Source text: as §1

NHE3 of the rat = NHE3 of the rat (Rattus norvegicus, UniProt P26433); settings: read-out: half-maximum inhibitory concentration (IC50); cited from earlier work
Sequence of NHE3 of the rat (P26433 29-831): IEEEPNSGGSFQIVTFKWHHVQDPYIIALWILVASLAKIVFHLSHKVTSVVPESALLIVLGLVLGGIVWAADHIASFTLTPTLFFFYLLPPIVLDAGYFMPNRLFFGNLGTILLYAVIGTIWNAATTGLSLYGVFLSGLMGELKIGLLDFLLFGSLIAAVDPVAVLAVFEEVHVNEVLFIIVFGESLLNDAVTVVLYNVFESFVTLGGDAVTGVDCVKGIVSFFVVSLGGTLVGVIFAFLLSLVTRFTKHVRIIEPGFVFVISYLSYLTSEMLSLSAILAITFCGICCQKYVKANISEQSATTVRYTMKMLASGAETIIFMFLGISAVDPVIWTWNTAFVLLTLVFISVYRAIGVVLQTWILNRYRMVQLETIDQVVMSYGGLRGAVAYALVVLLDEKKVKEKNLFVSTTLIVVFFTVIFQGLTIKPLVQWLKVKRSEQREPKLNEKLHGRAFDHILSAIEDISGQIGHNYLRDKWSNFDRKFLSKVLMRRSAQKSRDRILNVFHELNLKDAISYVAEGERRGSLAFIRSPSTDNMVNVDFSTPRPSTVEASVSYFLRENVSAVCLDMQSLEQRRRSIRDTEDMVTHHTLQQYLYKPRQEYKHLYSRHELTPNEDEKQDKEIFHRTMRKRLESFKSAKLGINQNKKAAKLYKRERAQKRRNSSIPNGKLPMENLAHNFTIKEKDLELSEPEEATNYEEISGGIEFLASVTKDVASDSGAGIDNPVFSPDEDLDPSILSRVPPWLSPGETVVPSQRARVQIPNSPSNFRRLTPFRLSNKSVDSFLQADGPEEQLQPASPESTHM

NHE3 [2] = molecular target: T3, NHE3; settings: indirect mechanism; cited from earlier work

## Cc1csc(Cl)c1NC1=NCCN1 [tiamenidine]
NHE2
  inhibitory action on NHE2: no relevant inhibitory actions
NHE5
  inhibitory action on NHE5: no relevant inhibitory actions
NHE1
  inhibitory action on NHE1: no relevant inhibitory actions
NHE3 [1]
  inhibitory action on NHE3: no relevant inhibitory actions

## Clc1cccc(Cl)c1N=C1NCCN1 [Clonidine]
NHE3 of the rat
  IC50: 620 µM

## CC(C)[C@@H](CC[C@@H](C)[C@H]1CC[C@H]2[C@@H]3[C@H](O)C[C@H]4C[C@@H](NCCCNCCCCN)CC[C@]4(C)[C@H]3CC[C@]12C)OS(=O)(=O)O [squalamine]
NHE3 [2]
  time to maximum strength of action: after one hour
